Molecular target: T1, PIEZO1 (SW982 cells) (Homo sapiens, UniProt Q92508)
T1 construct: endogenous full-length channel in native SW982 cells; response lost on PIEZO1 siRNA knockdown
Test: Fura-2 Ca2+ imaging
Assay type: cell-based
Settings: agonist; SBS with […] Ca2+, pH […]-26 °C; native SW982 cells, […] tested; bound only; read-out: apparent EC50

T1 sequence (Q92508 whole entry): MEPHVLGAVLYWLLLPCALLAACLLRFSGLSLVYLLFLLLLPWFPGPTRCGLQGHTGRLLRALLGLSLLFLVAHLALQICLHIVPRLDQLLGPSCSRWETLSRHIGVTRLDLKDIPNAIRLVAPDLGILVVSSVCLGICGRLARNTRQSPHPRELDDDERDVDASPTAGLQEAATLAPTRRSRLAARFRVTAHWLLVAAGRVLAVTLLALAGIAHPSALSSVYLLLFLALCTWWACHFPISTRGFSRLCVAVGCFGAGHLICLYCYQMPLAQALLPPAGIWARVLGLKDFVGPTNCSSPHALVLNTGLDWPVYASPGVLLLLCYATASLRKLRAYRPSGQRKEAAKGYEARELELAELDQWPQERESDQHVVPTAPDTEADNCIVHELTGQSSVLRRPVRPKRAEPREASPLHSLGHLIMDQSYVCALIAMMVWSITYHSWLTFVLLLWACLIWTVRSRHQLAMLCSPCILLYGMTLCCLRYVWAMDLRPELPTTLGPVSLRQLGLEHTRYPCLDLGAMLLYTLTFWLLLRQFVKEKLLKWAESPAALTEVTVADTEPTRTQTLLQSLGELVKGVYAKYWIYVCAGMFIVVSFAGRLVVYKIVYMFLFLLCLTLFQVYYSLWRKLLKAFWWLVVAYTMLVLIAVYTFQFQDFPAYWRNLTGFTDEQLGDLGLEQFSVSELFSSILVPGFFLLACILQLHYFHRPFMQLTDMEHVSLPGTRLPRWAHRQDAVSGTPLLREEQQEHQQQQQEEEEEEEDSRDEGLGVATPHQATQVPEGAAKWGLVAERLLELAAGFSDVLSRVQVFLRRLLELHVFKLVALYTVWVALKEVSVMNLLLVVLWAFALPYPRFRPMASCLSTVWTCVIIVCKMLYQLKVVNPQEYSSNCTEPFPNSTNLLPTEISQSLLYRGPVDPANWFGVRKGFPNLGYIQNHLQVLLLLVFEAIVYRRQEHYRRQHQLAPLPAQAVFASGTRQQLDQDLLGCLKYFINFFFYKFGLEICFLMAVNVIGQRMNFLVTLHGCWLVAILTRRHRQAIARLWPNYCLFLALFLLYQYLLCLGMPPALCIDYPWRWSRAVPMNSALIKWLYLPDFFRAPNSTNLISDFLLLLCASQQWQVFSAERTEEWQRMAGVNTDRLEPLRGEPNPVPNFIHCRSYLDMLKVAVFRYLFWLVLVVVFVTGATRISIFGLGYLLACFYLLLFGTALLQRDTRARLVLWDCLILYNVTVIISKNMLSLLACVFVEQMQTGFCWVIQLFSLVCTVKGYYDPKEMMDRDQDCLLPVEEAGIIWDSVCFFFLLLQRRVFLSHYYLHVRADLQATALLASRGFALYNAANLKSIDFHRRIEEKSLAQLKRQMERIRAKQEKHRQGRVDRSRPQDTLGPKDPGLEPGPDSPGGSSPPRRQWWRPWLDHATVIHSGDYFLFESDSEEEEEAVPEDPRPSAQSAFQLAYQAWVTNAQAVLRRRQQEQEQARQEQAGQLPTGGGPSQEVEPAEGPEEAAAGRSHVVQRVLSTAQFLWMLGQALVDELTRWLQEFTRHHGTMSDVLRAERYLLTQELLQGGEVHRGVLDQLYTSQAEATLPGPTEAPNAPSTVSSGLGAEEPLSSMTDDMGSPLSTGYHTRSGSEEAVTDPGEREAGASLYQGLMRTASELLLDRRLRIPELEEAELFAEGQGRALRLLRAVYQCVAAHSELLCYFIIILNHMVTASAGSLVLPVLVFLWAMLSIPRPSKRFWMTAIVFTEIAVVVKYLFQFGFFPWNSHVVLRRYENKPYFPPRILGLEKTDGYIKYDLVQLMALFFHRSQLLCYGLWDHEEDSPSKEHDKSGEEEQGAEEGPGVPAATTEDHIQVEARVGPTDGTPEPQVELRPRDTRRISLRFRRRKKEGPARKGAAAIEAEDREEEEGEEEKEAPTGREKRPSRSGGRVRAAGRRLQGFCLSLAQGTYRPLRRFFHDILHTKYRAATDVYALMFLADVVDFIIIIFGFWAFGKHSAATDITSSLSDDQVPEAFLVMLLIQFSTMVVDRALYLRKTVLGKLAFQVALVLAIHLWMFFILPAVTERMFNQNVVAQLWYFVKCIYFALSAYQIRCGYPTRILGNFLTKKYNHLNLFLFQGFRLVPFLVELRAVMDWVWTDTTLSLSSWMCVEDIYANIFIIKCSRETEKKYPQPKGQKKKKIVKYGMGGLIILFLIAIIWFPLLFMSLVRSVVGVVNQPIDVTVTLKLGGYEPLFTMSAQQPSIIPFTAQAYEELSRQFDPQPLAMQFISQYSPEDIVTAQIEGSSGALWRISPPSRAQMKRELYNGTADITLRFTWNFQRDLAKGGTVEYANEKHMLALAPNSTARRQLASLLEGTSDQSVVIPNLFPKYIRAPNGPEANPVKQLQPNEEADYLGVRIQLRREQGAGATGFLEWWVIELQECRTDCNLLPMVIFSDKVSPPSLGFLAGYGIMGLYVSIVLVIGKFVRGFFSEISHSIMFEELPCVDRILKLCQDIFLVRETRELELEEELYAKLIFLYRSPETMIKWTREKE

EC50: < 1000 nM
SMILES: Clc1cccc(Cl)c1CSc1nnc(-c2cnccn2)s1 [Yoda1, 2-[5-[[(2,6-Dichlorophenyl)methyl]thio]-1,3,4-thiadiazol-2-yl]-pyrazine]

— article PMC5983681, “PIEZO1 Channel Is a Potential Regulator of Synovial Sarcoma Cell-Viability” (International Journal of Molecular Sciences, 2018)
